Tests used:
[1] = target: Epidermal growth factor receptor (Homo sapiens, UniProt P00533); test: Inhibition of EGFR derived from human A431 cell membrane assessed as inhibition of poly-Glu-Tyr phosphorylation after 30 mins by ELISA assay; type: cell-based, A-431
Histone deacetylase = test: Inhibition of HDAC derived from human HeLa cell nuclear extract using Boc-Lys(acetyl)-AMC as substrate incubated for 5 mins prior to substrate addition measured after 30 mins by fluorimetry; type: protein assay
A-431 = test: Antiproliferative activity against human A431 cells after 48 hrs by MTT assay; type: functional, cell-based; settings: A-431, 48 h
A549 = test: Antiproliferative activity against human A549 cells after 48 hrs by MTT assay; type: functional, cell-based; settings: A549, 48 h
HL-60 = test: Antiproliferative activity against human HL60 cells after 48 hrs by MTT assay; type: functional, cell-based; settings: HL-60, 48 h

Sequence of Epidermal growth factor receptor (P00533 whole entry): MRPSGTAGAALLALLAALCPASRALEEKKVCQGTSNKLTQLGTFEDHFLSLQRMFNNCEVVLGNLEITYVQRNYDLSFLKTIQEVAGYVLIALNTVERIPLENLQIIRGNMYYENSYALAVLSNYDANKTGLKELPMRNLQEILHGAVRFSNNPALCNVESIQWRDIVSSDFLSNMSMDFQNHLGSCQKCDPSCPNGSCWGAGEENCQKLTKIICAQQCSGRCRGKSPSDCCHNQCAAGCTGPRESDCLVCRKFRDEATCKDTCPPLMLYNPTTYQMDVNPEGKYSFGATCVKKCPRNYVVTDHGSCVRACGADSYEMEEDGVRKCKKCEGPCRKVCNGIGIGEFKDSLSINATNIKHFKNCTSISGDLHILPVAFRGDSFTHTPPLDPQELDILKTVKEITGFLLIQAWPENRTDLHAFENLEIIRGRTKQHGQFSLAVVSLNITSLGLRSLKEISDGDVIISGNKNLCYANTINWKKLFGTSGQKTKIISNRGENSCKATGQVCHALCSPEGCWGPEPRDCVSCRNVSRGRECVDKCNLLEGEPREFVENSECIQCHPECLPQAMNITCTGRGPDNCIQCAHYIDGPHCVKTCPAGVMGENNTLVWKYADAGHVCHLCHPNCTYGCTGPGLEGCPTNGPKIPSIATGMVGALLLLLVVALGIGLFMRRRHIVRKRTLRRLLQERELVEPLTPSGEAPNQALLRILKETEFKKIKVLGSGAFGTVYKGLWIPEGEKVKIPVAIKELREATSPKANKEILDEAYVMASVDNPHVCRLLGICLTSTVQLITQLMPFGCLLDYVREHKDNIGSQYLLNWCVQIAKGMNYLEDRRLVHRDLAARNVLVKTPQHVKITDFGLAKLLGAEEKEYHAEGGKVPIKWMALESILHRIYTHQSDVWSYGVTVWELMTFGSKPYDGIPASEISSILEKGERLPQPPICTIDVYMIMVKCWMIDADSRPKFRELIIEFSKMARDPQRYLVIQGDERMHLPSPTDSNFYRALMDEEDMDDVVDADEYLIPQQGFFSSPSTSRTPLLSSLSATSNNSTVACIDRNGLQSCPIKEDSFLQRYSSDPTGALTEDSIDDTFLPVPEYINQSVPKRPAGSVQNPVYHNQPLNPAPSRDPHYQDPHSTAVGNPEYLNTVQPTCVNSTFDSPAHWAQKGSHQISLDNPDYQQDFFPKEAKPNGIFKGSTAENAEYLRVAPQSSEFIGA

Compound: O=C(CCCCCC(=O)Nc1ccc(O)c(C(=O)Nc2ccccc2)c1)NO
- IC50 [1]: 2.34 µM
- IC50 (Histone deacetylase): 1.89 µM
- IC50 (A-431): 5.85 µM
- IC50 (A549): 14.6 µM
- IC50 (HL-60): 20.3 µM

Compound: O=C(CCCCCC(=O)Nc1ccc(O)c(C(=O)Nc2cccc(F)c2)c1)NO
- IC50 [1]: 1.41 µM
- IC50 (Histone deacetylase): 3.59 µM
- IC50 (A-431): 4.28 µM
- IC50 (A549): 37.2 µM
- IC50 (HL-60): > 100 µM

Compound: O=C(CCCCCC(=O)Nc1ccc(O)c(C(=O)Nc2ccc(F)c(F)c2)c1)NO
- IC50 [1]: 2.22 µM
- IC50 (Histone deacetylase): 6.02 µM
- IC50 (A-431): 4.01 µM
- IC50 (A549): 70.1 µM
- IC50 (HL-60): > 100 µM

Compound: O=C(CCCCCC(=O)Nc1ccc(O)c(C(=O)Nc2ccc(F)c(Cl)c2)c1)NO
- IC50 [1]: 3.53 µM
- IC50 (Histone deacetylase): 3.02 µM
- IC50 (A-431): 3.48 µM
- IC50 (A549): 21.1 µM
- IC50 (HL-60): > 100 µM

Compound: O=C(CCCCCC(=O)Nc1ccc(O)c(C(=O)Nc2cccc(C(F)(F)F)c2)c1)NO
- IC50 [1]: 4.2 µM
- IC50 (Histone deacetylase): 3.19 µM
- IC50 (A-431): 2.75 µM
- IC50 (A549): 25.7 µM
- IC50 (HL-60): > 100 µM

Compound: C#Cc1cccc(NC(=O)c2cc(NC(=O)CCCCCC(=O)NO)ccc2O)c1
- IC50 [1]: 3.31 µM
- IC50 (Histone deacetylase): 4.09 µM
- IC50 (A-431): 5.75 µM
- IC50 (A549): 76.2 µM
- IC50 (HL-60): > 100 µM

Compound: O=C(CCCCCC(=O)Nc1ccc(O)c(C(=O)Nc2ccc(Cl)c(Cl)c2)c1)NO
- IC50 [1]: 1.8 µM
- IC50 (Histone deacetylase): 3.65 µM
- IC50 (A-431): 3.8 µM
- IC50 (A549): 17.8 µM
- IC50 (HL-60): > 100 µM

Compound: O=C(CCCCCC(=O)Nc1ccc(O)c(C(=O)Nc2ccc(Cl)c(C(F)(F)F)c2)c1)NO
- IC50 [1]: 1.41 µM
- IC50 (Histone deacetylase): 3.48 µM
- IC50 (A-431): 4.14 µM
- IC50 (A549): 24.1 µM
- IC50 (HL-60): > 100 µM

Compound: O=C(CCCCCC(=O)Nc1ccc(O)c(C(=O)Nc2ccc(OCc3cccc(F)c3)c(Cl)c2)c1)NO
- IC50 [1]: 1.1 µM
- IC50 (Histone deacetylase): 3.01 µM
- IC50 (A-431): 2.6 µM
- IC50 (A549): 12.4 µM
- IC50 (HL-60): > 100 µM

Compound: C#Cc1cccc(NC(=O)c2cc(NC(=O)CCCCCCC(=O)NO)ccc2O)c1
- IC50 [1]: 2.25 µM
- IC50 (Histone deacetylase): 2.03 µM
- IC50 (A-431): 6.11 µM
- IC50 (A549): 43.6 µM
- IC50 (HL-60): > 100 µM

Compound: COc1cc(O)c(C(=O)Nc2ccc(F)c(Cl)c2)cc1NC(=O)CCCCCC(=O)NO
- IC50 (Histone deacetylase): 1.09 µM

Compound: C#Cc1cccc(NC(=O)c2cc(NC(=O)CCCCCC(=O)NO)c(OC)cc2O)c1
- IC50 [1]: 1.12 µM
- IC50 (Histone deacetylase): 1.86 µM
- IC50 (A-431): 4.68 µM
- IC50 (A549): 18.4 µM
- IC50 (HL-60): 28.6 µM

Compound: C#Cc1cccc(NC(=O)c2cccc(NC(=O)CCCCCC(=O)NO)c2)c1
- IC50 [1]: 6.17 µM
- IC50 (Histone deacetylase): 3.27 µM
- IC50 (A-431): 7.08 µM
- IC50 (A549): 37.6 µM
- IC50 (HL-60): > 100 µM

Compound: C#Cc1cccc(NC(=O)c2cc(NC(=O)CCCCCC(=O)NO)ccc2OC)c1
- IC50 [1]: 5.16 µM
- IC50 (Histone deacetylase): 0.56 µM
- IC50 (A-431): 4.2 µM
- IC50 (A549): 40.7 µM
- IC50 (HL-60): 7.1 µM

Compound: C#Cc1cccc(NC(=O)c2cc(OCCCCCCC(=O)NO)ccc2O)c1
- IC50 [1]: 0.9 µM
- IC50 (Histone deacetylase): 1.21 µM
- IC50 (A-431): 1.88 µM
- IC50 (A549): 15.5 µM
- IC50 (HL-60): 30.9 µM

From ChEMBL document CHEMBL2046429, “Synthesis and biological evaluation of N-aryl salicylamides with a hydroxamic acid moiety at 5-position as novel HDAC-EGFR dual inhibitors” (Bioorg Med Chem, 2012)
